A value given as a limit tells only on which side of the number the result lay.

Chain of Tyrosine-protein kinase ABL1 (P00519 whole entry): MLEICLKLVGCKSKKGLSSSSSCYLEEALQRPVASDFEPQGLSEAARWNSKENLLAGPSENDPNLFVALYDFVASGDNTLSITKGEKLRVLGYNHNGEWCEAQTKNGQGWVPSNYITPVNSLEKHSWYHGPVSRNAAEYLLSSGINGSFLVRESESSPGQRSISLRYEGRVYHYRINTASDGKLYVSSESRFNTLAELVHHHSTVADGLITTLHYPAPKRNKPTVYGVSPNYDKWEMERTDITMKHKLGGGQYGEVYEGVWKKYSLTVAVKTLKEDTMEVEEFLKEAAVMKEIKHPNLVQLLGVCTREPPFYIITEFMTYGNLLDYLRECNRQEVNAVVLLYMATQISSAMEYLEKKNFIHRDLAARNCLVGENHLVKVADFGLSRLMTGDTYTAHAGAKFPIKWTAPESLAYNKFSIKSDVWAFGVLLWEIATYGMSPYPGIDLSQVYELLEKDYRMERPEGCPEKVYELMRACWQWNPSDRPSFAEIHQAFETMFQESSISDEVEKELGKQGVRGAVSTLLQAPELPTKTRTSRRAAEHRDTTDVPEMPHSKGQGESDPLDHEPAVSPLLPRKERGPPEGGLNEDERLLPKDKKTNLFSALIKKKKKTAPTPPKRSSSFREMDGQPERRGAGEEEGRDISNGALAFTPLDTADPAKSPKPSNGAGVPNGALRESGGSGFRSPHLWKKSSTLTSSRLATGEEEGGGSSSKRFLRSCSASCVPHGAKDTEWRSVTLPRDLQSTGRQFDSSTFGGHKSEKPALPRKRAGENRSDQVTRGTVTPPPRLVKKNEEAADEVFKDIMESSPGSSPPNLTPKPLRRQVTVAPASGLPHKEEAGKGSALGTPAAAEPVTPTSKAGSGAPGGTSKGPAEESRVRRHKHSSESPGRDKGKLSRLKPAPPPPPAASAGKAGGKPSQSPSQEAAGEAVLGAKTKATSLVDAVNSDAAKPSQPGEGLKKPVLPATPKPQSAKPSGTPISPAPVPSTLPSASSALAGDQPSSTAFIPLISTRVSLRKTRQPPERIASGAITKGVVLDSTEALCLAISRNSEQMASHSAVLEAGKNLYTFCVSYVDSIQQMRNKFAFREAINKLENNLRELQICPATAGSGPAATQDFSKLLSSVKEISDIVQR
Chain of Non-receptor tyrosine-protein kinase TYK2 (P29597 whole entry, the tested form may be a part): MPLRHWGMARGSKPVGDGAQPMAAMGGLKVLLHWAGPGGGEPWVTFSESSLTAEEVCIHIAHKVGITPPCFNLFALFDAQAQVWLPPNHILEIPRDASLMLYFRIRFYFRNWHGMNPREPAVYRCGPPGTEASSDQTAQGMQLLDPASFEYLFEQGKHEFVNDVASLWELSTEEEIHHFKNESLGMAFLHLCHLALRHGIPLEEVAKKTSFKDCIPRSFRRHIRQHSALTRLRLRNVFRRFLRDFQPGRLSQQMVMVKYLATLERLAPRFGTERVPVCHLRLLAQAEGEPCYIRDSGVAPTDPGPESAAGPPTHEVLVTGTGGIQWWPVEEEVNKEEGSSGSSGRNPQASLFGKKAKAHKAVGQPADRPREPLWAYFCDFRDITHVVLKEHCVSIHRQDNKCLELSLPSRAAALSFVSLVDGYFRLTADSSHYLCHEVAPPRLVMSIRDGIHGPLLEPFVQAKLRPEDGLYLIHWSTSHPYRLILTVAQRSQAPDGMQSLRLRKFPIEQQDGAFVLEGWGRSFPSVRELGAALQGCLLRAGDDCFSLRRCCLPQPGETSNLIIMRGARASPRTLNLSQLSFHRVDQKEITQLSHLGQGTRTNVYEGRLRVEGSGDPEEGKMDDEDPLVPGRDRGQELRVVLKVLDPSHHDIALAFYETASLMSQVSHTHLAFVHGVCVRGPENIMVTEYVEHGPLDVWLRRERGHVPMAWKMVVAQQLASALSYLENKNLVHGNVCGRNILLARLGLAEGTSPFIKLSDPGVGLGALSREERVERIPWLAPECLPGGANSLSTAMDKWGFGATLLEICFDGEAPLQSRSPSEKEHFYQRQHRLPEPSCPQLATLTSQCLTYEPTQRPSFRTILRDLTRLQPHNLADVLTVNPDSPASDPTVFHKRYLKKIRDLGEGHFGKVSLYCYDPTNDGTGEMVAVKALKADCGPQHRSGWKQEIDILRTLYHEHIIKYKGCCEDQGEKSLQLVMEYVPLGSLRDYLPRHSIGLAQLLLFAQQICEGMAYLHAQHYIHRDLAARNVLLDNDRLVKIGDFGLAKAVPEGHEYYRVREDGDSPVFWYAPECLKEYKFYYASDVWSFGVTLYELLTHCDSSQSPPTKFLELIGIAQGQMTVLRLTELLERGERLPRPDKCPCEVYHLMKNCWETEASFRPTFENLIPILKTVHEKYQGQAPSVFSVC
Chain of Casein kinase I isoform alpha (P48729 whole entry, canonical isoform): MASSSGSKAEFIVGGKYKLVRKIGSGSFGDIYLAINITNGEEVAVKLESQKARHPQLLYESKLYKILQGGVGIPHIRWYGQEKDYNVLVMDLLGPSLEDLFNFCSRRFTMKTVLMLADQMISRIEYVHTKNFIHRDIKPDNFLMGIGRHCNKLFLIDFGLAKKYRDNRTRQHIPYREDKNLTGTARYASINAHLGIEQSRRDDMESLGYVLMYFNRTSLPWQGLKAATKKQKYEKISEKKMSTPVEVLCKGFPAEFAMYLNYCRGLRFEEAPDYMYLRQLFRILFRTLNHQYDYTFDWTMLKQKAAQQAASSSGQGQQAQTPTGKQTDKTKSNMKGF
Chain of RAC-beta serine/threonine-protein kinase (P31751 whole entry): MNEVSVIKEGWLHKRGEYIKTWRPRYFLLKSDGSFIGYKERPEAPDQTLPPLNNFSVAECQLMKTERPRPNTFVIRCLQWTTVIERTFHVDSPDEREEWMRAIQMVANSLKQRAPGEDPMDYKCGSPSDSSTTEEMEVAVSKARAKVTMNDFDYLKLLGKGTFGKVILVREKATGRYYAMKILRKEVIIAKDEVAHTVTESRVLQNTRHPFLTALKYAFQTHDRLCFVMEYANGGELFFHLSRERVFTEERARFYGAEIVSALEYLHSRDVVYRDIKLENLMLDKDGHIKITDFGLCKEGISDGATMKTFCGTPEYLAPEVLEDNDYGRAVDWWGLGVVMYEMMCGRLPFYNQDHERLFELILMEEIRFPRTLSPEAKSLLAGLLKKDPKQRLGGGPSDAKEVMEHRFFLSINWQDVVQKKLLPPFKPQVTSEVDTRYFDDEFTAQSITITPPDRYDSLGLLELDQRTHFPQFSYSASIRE

In the first experiment the target is Casein kinase II subunit alpha (Homo sapiens, UniProt P68400). Kind of experiment: Inhibition of full-length recombinant human His-tagged CSNK2A1 expressed in baculovirus expression system by Z'-LYTE assay.
Chain of Casein kinase II subunit alpha (P68400 whole entry): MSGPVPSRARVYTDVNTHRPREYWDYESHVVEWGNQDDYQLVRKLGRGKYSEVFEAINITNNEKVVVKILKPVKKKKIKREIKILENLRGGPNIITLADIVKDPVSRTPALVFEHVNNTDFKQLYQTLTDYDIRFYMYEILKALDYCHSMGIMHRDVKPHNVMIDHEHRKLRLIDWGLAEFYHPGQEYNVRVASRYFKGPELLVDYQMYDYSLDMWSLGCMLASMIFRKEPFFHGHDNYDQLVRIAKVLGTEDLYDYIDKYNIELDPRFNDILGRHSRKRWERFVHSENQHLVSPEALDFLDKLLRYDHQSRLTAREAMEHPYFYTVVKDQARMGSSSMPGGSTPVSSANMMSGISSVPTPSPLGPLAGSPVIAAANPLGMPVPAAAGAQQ
Usually IC50 stands for the concentration at which inhibition is half-maximal. Regarding `O=C(NCC(F)(F)F)c1cc(-c2cnn3cc(-c4ccc(OCCN5CCCCC5)cc4)cnc23)cs1`, the IC50 came out at 8300 nM.
Consider `Cn1cc(-c2cnc3c(-c4csc(C(=O)NCC(F)(F)F)c4)cnn3c2)cn1`, for which the IC50 was above 100000 nM.
With `Cc1sc(C(=O)N[C@@H]2[C@H](N)CCCC2(F)F)cc1-c1cnn2cc(Cl)cnc12`, the IC50 is above 100000 nM.
On the same count and under the same terms, as for `Cn1cc(-c2cnc3c(-c4csc(C(=O)N[C@@H]5CCCC[C@@H]5N)c4)cnn3c2)cn1` (racemic), the figure is above 10000 nM.

A further experiment concerns the target Non-receptor tyrosine-protein kinase TYK2 (Homo sapiens, UniProt P29597). Kind of experiment: Inhibition of recombinant human N-terminal GST-tagged cytoplasmic TYK2 (833 to 1187 residues) catalytic domain expressed in baculovirus expression system by Z'-LYTE assay.
Turning to `O=C(NCC(F)(F)F)c1cc(-c2cnn3cc(-c4ccc(OCCN5CCCCC5)cc4)cnc23)cs1`, the IC50 stood at 75 nM.
On the same count and under the same terms, the value for `Cn1cc(-c2cnc3c(-c4csc(C(=O)NCC(F)(F)F)c4)cnn3c2)cn1` was 92 nM; that for `Cc1sc(C(=O)N[C@@H]2[C@H](N)CCCC2(F)F)cc1-c1cnn2cc(Cl)cnc12` was 10000 nM; that for `Cn1cc(-c2cnc3c(-c4csc(C(=O)N[C@@H]5CCCC[C@@H]5N)c4)cnn3c2)cn1` (racemic) was 52 nM.

In another experiment the target is T1, MAP/microtubule affinity-regulating kinase 4 (Mus musculus, UniProt Q8CIP4).
T1 sequence (Q8CIP4 whole entry): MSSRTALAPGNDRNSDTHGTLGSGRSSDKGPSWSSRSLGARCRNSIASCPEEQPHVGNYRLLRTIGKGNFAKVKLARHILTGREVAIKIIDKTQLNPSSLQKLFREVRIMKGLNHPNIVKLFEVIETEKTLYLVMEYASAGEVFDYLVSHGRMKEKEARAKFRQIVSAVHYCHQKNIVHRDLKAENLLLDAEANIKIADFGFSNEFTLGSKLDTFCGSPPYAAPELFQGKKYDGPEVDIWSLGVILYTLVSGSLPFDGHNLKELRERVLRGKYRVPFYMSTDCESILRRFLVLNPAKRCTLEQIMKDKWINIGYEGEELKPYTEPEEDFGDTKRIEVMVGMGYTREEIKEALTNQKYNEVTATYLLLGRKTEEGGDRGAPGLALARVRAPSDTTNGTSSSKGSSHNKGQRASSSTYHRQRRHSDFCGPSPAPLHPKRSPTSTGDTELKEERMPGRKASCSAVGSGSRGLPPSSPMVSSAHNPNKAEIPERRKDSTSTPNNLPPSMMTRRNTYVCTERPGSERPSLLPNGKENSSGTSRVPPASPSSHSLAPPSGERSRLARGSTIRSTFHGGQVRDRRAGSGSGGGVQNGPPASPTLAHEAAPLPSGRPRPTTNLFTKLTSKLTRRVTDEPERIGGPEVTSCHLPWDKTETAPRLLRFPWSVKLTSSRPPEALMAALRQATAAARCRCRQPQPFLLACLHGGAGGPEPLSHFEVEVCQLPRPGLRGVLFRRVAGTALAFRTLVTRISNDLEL
Put plainly: Inhibition of MARK4 in mouse cortical neurons assessed as inhibition of okadaic acid-induced tau phosphorylation at S262 residue preincubated for 15 mins followed okadaic acid challenge for 1.5 hrs by immunostaining method.
Regarding `O=C(NCC(F)(F)F)c1cc(-c2cnn3cc(-c4ccc(OCCN5CCCCC5)cc4)cnc23)cs1`, the 50% inhibitory concentration (IC50) is 50 nM.
As for `Cn1cc(-c2cnc3c(-c4csc(C(=O)NCC(F)(F)F)c4)cnn3c2)cn1`, the IC50 turned out to be 60 nM.
`Cc1sc(C(=O)N[C@@H]2[C@H](N)CCCC2(F)F)cc1-c1cnn2cc(Cl)cnc12`: the IC50 came to 280 nM.
Take `Cn1cc(-c2cnc3c(-c4csc(C(=O)N[C@@H]5CCCC[C@@H]5N)c4)cnn3c2)cn1` (racemic): the IC50 was 2 nM.

Another experiment concerns the target T2, MAP kinase-activated protein kinase 5 (Homo sapiens, UniProt Q8IW41).
T2 sequence (Q8IW41 whole entry): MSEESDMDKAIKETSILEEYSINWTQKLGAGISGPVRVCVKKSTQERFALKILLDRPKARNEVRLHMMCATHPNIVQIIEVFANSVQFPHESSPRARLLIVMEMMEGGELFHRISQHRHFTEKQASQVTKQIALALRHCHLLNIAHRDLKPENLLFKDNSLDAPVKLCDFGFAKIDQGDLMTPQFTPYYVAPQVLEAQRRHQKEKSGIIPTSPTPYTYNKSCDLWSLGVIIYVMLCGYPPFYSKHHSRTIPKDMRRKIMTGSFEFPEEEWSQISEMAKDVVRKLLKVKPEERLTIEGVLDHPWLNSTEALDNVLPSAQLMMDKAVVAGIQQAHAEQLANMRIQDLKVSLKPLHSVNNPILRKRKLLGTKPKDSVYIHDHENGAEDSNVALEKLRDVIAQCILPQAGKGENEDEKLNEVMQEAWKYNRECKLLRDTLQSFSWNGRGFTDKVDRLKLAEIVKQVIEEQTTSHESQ
Put plainly: Inhibition of full-length recombinant human His-tagged MAPKAPK5 expressed in baculovirus expression system by Z'-LYTE assay.
`O=C(NCC(F)(F)F)c1cc(-c2cnn3cc(-c4ccc(OCCN5CCCCC5)cc4)cnc23)cs1`: the IC50 turned out to be 9600 nM.
For `Cn1cc(-c2cnc3c(-c4csc(C(=O)NCC(F)(F)F)c4)cnn3c2)cn1`, the IC50 was 19000 nM.
In the case of `Cc1sc(C(=O)N[C@@H]2[C@H](N)CCCC2(F)F)cc1-c1cnn2cc(Cl)cnc12`, the IC50 is above 100000 nM.
With `Cn1cc(-c2cnc3c(-c4csc(C(=O)N[C@@H]5CCCC[C@@H]5N)c4)cnn3c2)cn1` (racemic), the IC50 turned out to be 1400 nM.

A further experiment concerns the target Tyrosine-protein kinase ABL1 (Homo sapiens, UniProt P00519). Kind of experiment: Inhibition of full-length human His-tagged ABL1 expressed in baculovirus expression system by Z'-LYTE assay.
For `O=C(NCC(F)(F)F)c1cc(-c2cnn3cc(-c4ccc(OCCN5CCCCC5)cc4)cnc23)cs1`, the IC50 was below 10 nM.
Compound `Cn1cc(-c2cnc3c(-c4csc(C(=O)NCC(F)(F)F)c4)cnn3c2)cn1` registered an IC50 below 10 nM.
Still for that read-out and setting: the value for `Cc1sc(C(=O)N[C@@H]2[C@H](N)CCCC2(F)F)cc1-c1cnn2cc(Cl)cnc12` was 9100 nM.
On the same count and under the same terms, the value for `Cn1cc(-c2cnc3c(-c4csc(C(=O)N[C@@H]5CCCC[C@@H]5N)c4)cnn3c2)cn1` (racemic) was 1.3 nM.

The target in another experiment is Cyclin-dependent kinase 2 (Homo sapiens, UniProt P24941). Put plainly: Inhibition of full-length recombinant human His-tagged CDK2 expressed in baculovirus expression system by Z'-LYTE assay.
On to `O=C(NCC(F)(F)F)c1cc(-c2cnn3cc(-c4ccc(OCCN5CCCCC5)cc4)cnc23)cs1`, for which the IC50 was 12 nM.
Still for that read-out and setting: the value for `Cn1cc(-c2cnc3c(-c4csc(C(=O)NCC(F)(F)F)c4)cnn3c2)cn1` was below 10 nM; that for `Cc1sc(C(=O)N[C@@H]2[C@H](N)CCCC2(F)F)cc1-c1cnn2cc(Cl)cnc12` was 51 nM; that for `Cn1cc(-c2cnc3c(-c4csc(C(=O)N[C@@H]5CCCC[C@@H]5N)c4)cnn3c2)cn1` (racemic) was 2.2 nM.

Another experiment has as its target RAC-beta serine/threonine-protein kinase (Homo sapiens, UniProt P31751). Kind of experiment: Inhibition of full-length recombinant human His-tagged AKT2 expressed in baculovirus expression system by Z'-LYTE assay.
As for `O=C(NCC(F)(F)F)c1cc(-c2cnn3cc(-c4ccc(OCCN5CCCCC5)cc4)cnc23)cs1`, the IC50 is 23000 nM.
For the compound `Cn1cc(-c2cnc3c(-c4csc(C(=O)NCC(F)(F)F)c4)cnn3c2)cn1`, the IC50 is above 100000 nM.
`Cc1sc(C(=O)N[C@@H]2[C@H](N)CCCC2(F)F)cc1-c1cnn2cc(Cl)cnc12`: the IC50 is 2500 nM.
On to `Cn1cc(-c2cnc3c(-c4csc(C(=O)N[C@@H]5CCCC[C@@H]5N)c4)cnn3c2)cn1` (racemic), for which the IC50 amounted to 430 nM.

Another experiment deals with T3, Protein kinase C zeta type (Homo sapiens, UniProt Q05513).
T3 sequence (Q05513 whole entry): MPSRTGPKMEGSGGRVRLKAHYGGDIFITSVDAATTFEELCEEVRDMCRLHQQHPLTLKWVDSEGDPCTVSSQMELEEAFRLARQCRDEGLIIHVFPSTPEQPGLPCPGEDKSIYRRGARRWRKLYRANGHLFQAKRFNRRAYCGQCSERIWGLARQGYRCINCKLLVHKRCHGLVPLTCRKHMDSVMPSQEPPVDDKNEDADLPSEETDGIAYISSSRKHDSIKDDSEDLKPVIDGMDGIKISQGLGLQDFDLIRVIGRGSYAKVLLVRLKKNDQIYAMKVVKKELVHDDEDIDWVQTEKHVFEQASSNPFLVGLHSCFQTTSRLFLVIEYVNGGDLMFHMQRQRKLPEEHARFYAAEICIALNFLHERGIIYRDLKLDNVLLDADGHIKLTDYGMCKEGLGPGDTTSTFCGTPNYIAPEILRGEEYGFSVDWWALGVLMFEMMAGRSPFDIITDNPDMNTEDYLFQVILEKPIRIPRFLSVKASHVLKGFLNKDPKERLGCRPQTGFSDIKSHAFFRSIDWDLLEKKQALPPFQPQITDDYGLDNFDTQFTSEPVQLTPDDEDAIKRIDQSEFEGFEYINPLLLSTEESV
Kind of experiment: Inhibition of full-length recombinant human PRKCZ expressed in baculovirus expression system by Z'-LYTE assay.
Consider `O=C(NCC(F)(F)F)c1cc(-c2cnn3cc(-c4ccc(OCCN5CCCCC5)cc4)cnc23)cs1`, for which the IC50 stood at 1900 nM.
As to `Cn1cc(-c2cnc3c(-c4csc(C(=O)NCC(F)(F)F)c4)cnn3c2)cn1`, the IC50 worked out at 1800 nM.
With `Cc1sc(C(=O)N[C@@H]2[C@H](N)CCCC2(F)F)cc1-c1cnn2cc(Cl)cnc12`, the IC50 was 1100 nM.
Regarding `Cn1cc(-c2cnc3c(-c4csc(C(=O)N[C@@H]5CCCC[C@@H]5N)c4)cnn3c2)cn1` (racemic), the IC50 is 40 nM.

The next experiment concerns the target cAMP-dependent protein kinase catalytic subunit alpha (Homo sapiens, UniProt P17612). Kind of experiment: Inhibition of recombinant human His-tagged PRKACA catalytic domain expressed in Escherichia coli by Z'-LYTE assay.
Consider `O=C(NCC(F)(F)F)c1cc(-c2cnn3cc(-c4ccc(OCCN5CCCCC5)cc4)cnc23)cs1`, for which the IC50 came to 15000 nM.
Still for that read-out and setting: as for `Cn1cc(-c2cnc3c(-c4csc(C(=O)NCC(F)(F)F)c4)cnn3c2)cn1`, the figure is above 100000 nM; as for `Cc1sc(C(=O)N[C@@H]2[C@H](N)CCCC2(F)F)cc1-c1cnn2cc(Cl)cnc12`, 3000 nM; as for `Cn1cc(-c2cnc3c(-c4csc(C(=O)N[C@@H]5CCCC[C@@H]5N)c4)cnn3c2)cn1` (racemic), 27 nM.

The next experiment addresses Casein kinase I isoform alpha (Homo sapiens, UniProt P48729). Kind of experiment: Inhibition of recombinant human GST-tagged cytoplasmic CSNK1A1 expressed in baculovirus expression system by Z'-LYTE assay.
Regarding `O=C(NCC(F)(F)F)c1cc(-c2cnn3cc(-c4ccc(OCCN5CCCCC5)cc4)cnc23)cs1`, the IC50 is 230 nM.
Regarding `Cn1cc(-c2cnc3c(-c4csc(C(=O)NCC(F)(F)F)c4)cnn3c2)cn1`, the IC50 was determined as 630 nM.
With `Cc1sc(C(=O)N[C@@H]2[C@H](N)CCCC2(F)F)cc1-c1cnn2cc(Cl)cnc12`, the IC50 stood at 18000 nM.
For `Cn1cc(-c2cnc3c(-c4csc(C(=O)N[C@@H]5CCCC[C@@H]5N)c4)cnn3c2)cn1` (racemic), the IC50 came out at 2100 nM.

The target in a further experiment is Ribosomal protein S6 kinase alpha-3 (Homo sapiens, UniProt P51812). Put plainly: Inhibition of full-length recombinant human His-tagged RPS6KA3 expressed in baculovirus expression system by Z'-LYTE assay.
Chain of Ribosomal protein S6 kinase alpha-3 (P51812 whole entry): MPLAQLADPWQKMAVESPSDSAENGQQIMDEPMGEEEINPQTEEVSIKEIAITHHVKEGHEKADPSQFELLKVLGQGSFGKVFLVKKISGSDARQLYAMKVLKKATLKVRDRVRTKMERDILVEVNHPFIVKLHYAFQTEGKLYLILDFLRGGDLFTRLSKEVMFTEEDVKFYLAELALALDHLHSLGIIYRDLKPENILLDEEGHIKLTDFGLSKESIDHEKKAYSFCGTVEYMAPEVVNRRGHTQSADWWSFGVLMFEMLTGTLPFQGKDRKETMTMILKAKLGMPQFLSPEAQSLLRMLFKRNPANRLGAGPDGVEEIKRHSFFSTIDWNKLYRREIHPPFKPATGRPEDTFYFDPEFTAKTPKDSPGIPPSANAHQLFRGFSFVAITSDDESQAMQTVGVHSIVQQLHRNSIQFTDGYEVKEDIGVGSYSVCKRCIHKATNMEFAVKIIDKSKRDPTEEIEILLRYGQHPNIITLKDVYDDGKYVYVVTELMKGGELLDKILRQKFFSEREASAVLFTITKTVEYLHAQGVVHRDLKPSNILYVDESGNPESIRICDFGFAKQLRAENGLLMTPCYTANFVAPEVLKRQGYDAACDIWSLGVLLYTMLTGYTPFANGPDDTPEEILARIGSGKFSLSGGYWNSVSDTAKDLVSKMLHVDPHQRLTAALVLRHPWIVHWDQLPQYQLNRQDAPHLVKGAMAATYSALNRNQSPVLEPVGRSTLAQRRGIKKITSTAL
Regarding `O=C(NCC(F)(F)F)c1cc(-c2cnn3cc(-c4ccc(OCCN5CCCCC5)cc4)cnc23)cs1`, the IC50 is 260 nM.
Turning to `Cn1cc(-c2cnc3c(-c4csc(C(=O)NCC(F)(F)F)c4)cnn3c2)cn1`, the IC50 stood at 380 nM.
For the compound `Cc1sc(C(=O)N[C@@H]2[C@H](N)CCCC2(F)F)cc1-c1cnn2cc(Cl)cnc12`, the IC50 was found to be 47 nM.
Take `Cn1cc(-c2cnc3c(-c4csc(C(=O)N[C@@H]5CCCC[C@@H]5N)c4)cnn3c2)cn1` (racemic): the IC50 is below 1 nM.

Values taken from ChEMBL document CHEMBL4477252, “Optimization of microtubule affinity regulating kinase (MARK) inhibitors with improved physical properties” (Bioorg Med Chem Lett, 2016).
